# Legend:
# viscerosensory response = test: Viscerosensory response test: abdominal oblique muscle contractions under colonic distension stimulus after 1% acetic acid instillation; format: in vivo; details: male SD rats, oral 0.3, 3 and 30 mg/kg, 30 minutes before second colonic distension stimulus; FIG. 1
# Procedure: For the experiment, 7 to 8 week-old male SD rats (CREA Japan, Inc.) were used. Under ether anesthesia, the rats were sutured with a force transducer (F12-IS-SL, Star Medical Inc.) on the abdominal oblique muscle, and used for the experiment after waiting at least one day or more postoperatively for recovery of the animals. After fasting for 18 hours, 1% acetic acid was instilled into the colon to produce a hypersensitive condition. One hour after the instillation of acetic acid, a balloon was inserted into the colon, fixed, and colonic distension stimulus was loaded for 10 minutes by inflating the balloon. The colonic distension stimulus was loaded two times before and after administration of compound A, and the observed contraction number of the abdominal oblique muscle was counted. The result was expressed as inhibition percent. Determination of the abdominal muscle contraction was conducted with the naked eye and waveform of force transducer. Compound A was suspended in a 0.5% methylcellulose, and administered orally with a volume of 4 mL/kg 30 minutes before the second colonic distension stimulus (0.3, 3 and 30 mg/kg).
# [1] = test system: restraint stress-induced defecation; test: Restraint stress-induced defecation test; format: in vivo; details: male Wistar rats
# Procedure: For the experiment, 10 week-old male Wistar rats (SLC) were used. Compound A (0.3, 3, 10 and 30 mg/kg) or a vehicle (control group, 0.5% methylcellulose) was administered orally with a dose of 4 ml/kg, and after 15 minutes, a restraint stress was loaded. Fecal pellets were retrieved 2 hours after the beginning of the restraint stress loading, and the number of feces was counted. In addition, as for normal group, rats were left in their individual cages without any after administration of vehicle, and the number of feces for 2 hours was counted. Experiment was carried out according to Test Example 2, wherein melatonin (10 and 30 mg/kg) instead of compound A was administered orally.
# normal defecation = test: Normal defecation test; format: in vivo; details: male Wistar rats, oral 30 mg/kg; FIG. 3
# Procedure: Further, a study on normal defecation was also conducted. Until the day before the experiment, two rats were kept in a cage and accustomed to the measuring condition. On the day of experiment, compound A or vehicle (control group, 0.5% methylcellulose) was administered orally with a dose of 4 ml/kg, and after 15 minutes, the measurement of defecation was commenced. The number of feces was counted two hours after the initiation of measurement, and the result was expressed by the number of feces per two rats.
# [2] = test system: melatonin receptor MT1/MT2; details: disclosed in U.S. Pat. No. 6,034,239; cited from earlier work
# [3] = test system: abdominal symptoms of irritable bowel syndrome; details: female patients suffering from irritable bowel syndrome; cited from earlier work
# [4] = test system: partial restraint stress-induced defecation; details: experimental model for irritable bowel syndrome; cited from earlier work
SMILES,"inhibition of viscerosensory response (contraction number of abdominal oblique muscle, inhibition percent) (viscerosensory response)","inhibition of restraint stress-induced defecation (number of feces for 2 hours) ([1]; oral 30 mg/kg, 15 minutes before restraint stress, FIG. 2)","inhibition of normal defecation (number of feces per two rats, 2 hours) (normal defecation)",melatonin receptor MT1/MT2 agonistic action [2],"inhibition of restraint stress-induced defecation (number of feces for 2 hours) ([1]; oral 10 and 30 mg/kg, FIG. 4)","improvement of abdominal symptoms (abdominal pain, abdominal bloating, sense of urgency for defecation) [3]",inhibitory action on partial restraint stress-induced defecation [4]
"CCC(=O)NCC[C@@H]1CCc2ccc3c(c21)CCO3 [compound A, (S)—N-[2-(1,6,7,8-tetrahydro-2H-indeno[5,4-b]furan-8-yl)ethyl]propionamide]",dose-dependent significant inhibition action,inhibited significantly,not inhibited,has a melatonin receptor MT1/MT2 agonistic action,–,–,–
COc1ccc2[nH]cc(CCNC(C)=O)c2c1 [melatonin],–,–,–,–,did not inhibit,improves significantly,shows an inhibitory action

# Source: US8183285B2, “Therapeutic agent for irritable bowel syndrome and methods thereof” (Takeda Pharmaceutical Company Limited, priority 2006, dated 2012)
